Tests used:
[1] = tested on: DoHH2 cultures treated with VP-16; experiment: Combination tracking of cell status with compound (IA) plus compound (IIA), flow cytometry; type: cell-based, human; details: 20 μM compound (IIA) and 4 μM compound (IA), 10 minutes, VP-16 0.25 μM
Protocol: Cell culture and drug treatment: A human follicular B-lymphoma cell line was used in this study. DoHH2 was routinely maintained in RPMI 1640 supplemented with 5% FCS and 100 U ml-1 penicillin, 100 μgml^−1 streptomycin, and 2 mM glutamine. The cells were passaged twice weekly at an initiating density of 5×10^4 cells ml^−1 cultured at 37° C. in a humidified atmosphere of 5% CO2/95% air. Cells were set at 5×10^5 cells/per ml and exposed to VP-16 doses (0.25 μM) to induce apoptosis. 20 μM Compound (IIA) and 4 μM compound (IA) were added to 1 ml of cells and incubated under standard culture conditions for 10 minutes. The samples were analysed by flow cytometry.
A FACS Vantage flow cytometer (as for example above) was used. Compound (IIA) and compound (IA) fluorescent signals derived from 488 nm excitation were detected in linear mode at FL2 for Compound (IIA) (585/42 nm filters); compound (IA) signal derived from 488 nm were detected in linear mode at FL3 with a 695LP filter and a FL1/2 560 nm SP dichroic SP to determine scatter properties. Signals for forward and side scatter and fluorescence were collected for 10,000 cells using the forward light scatter parameter as the master signal. Contour plots of side versus forward scatter depict two populations of cells. The addition of Compound (IIA) and compound (IA) provide functional status of these cultures. […]

[2] = Spectral properties (absorbance and fluorescence spectra); type: physicochemical; details: for Em peak / Ex peak: FIG. 1, in general terms (diagrammatically)
Description: (§1) These possible detection systems and others will now be described in more detail with reference to FIGS. 1 to 9. […] Therefore, the Compound of Formula (IIA) fluorescence is generally in the orange portion of the visible spectrum, whereas compound (IA) fluorescence is generally in the far red portion of the visible spectrum. […] The compound of Formula (IIA) is a cell permeant dye, and therefore it would be expected that the fluorescence signature B would be in connection with live or dead cells. […] As might perhaps be expected, it is only the fluorescence signature B associated with the cell permeant dye which is observed. […] It might be expected that a significant contribution of the observed fluorescence would emanate from the compound of Formula (IIA) dye. […] Therefore, the compound (IA) dye appears to quench the compound of Formula (IIA) signal. […] However, other mechanisms may play a role. The upshot is that it is possible to provide a “traffic light” system to indicate the state of a cell, wherein fluorescence in one spectral region A is associated with dead cells, and fluorescence in another spectral region B is associated with live cells.
Compound (IA) was synthesized using the principles described in Example 2 and stored at +4° C. as a stock solution of 5 mM compound (IA) dilution in buffer. Absorbance spectra were obtained using a spectrometer and a 20 μM solution of agent dissolved in PBS and measured in a 1 cm path quartz silica cuvette. Fluorescence spectra for a solution of 20 μM compound (IA) in a 1 cm path length semi-micro quartz cuvette were determined by excitation at 633, 589, 534, 488 nm. Fluorescence measurements were made on a Perkin Elmer LS50 spectrofluorometer with slit widths set at 10 nm. The spectrofluoremeter was equipped with a red-sensitive photomultiplier tube (Type R928; Hamamatsu Photonics KK, Japan. Data were accumulated and exported into a spread sheet to correct for the buffer control and to determine emission maxima. The results are shown in FIG. 8. Compound (IA) may be sub-optimally excited by wavelengths from 488 nm (in flow cytometry) and up to 647 nm (Exλmax 646 nm). Typically, for cell imaging, excitation is performed with either 633 nm or 647 nm wavelengths. Emission spectra are independent of excitation wavelength, ie, all the emission spectra are identical irrespective of excitation wavelength.

[3] = tested on: live cells and dead cells; experiment: Cell permeant/cell impermeant dye combination staining of live and dead cells; type: cell-based; parameters: key to Live cell stain / Dead cell stain: +: positive; −: negative; details: for Dead cell stain / Live cell stain: combination staining pattern, predicted
Description: It will be appreciated that this provides the opportunity to perform numerous advantageous two-colour, two-fluorochrome experiments. Moreover, the present inventors have realised that dye combinations of this type also provide a platform for performing a range of advantageous experiments using one or more further fluorochromes.
as §1

[4] = tested on: fixed U-2 OS human osteosarcoma cells; experiment: Nuclear staining of fixed cells by fluorescence microscopy; type: cell-based; details: 20 μM, cells fixed with 4% paraformaldehyde
Protocol: Cell culture: Human osteosarcoma cells U-20S (ATCC HTB-96) cells (adherent) were cultured in McCoy's 5a medium supplemented with 10% foetal calf serum (FCS), 1 mM glutamine, and antibiotics and incubated at 37° C. in an atmosphere of 5% CO2 in air. For fluorescence imaging experiments, cells were grown at a density of 1×10^5 cells ml^−1 as a monolayer in coverglass bottomed chambers (Nunc, 2 Well Lab-Tek II, Fisher Scientific). Imaging: Following a 24 hour period cells were then fixed with 4% paraformaldehyde in PBS for 15-30 min at room temperature. No washing step is required. Compound (IA) was used in a manner appropriate to being the final staining procedure, after any treatment. Compound (IA) was added directly at 20 μM in to a 0.5 ml PBS overlay of the adherent cells. Cells were directly viewed using wide-field fluorescence microscopy. Chambers were placed onto an Axiovert 100 microscope (Carl Zeiss, Welwyn Garden City, UK and using a 40×, 1.3 NA oil immersion plan apochromat lens).fluorescence images (Ex: 620/60 nm; Em 700/75 nm) nm captured using an ORCA-ER CCD camera (Hamamatsu, Reading, UK) and MetaMorph (MDS, USA) acquisition software. […] The compound (IA) staining of nuclei were segmented using a simple threshold algorithm which depict the nuclei, and provide binary or mask information of each nucleus (object) localization. […]

human Jurkat cells = experiment: Multi-parameter JC-1 / compound (IA) analysis of staurosporine treated cells; type: cell-based; details: 3 μM with JC-1, Jurkat cells, 1 μM staurosporine for 4 hours
Description: In this example, the dye JC-1 (5,5′,6,6′-tetrachloro-1,1′,3,3′-tetraethylbenzimidazol-carbocyanine iodide) is a lipophilic fluorescent cation that incorporates into the mitochondrial membrane, where it can form aggregates due to the physiological maintenance membrane potential of mitochondria. Aggregation modifies the fluorescence properties of JC-1 leading to a shift from green to orange fluorescence. Flow cytometry or imaging was used to monitor the decrease of the orange fluorescence and an increase of the green fluorescence allowing apoptotic cells to be distinguished from non-apoptotic cells.
Cell culture and drug treatment: A Jurkat cell line was used in this study Jurkat cultures was routinely maintained in RPMI 1640 supplemented with 10% FCS and 100 U ml-1 penicillin, 100 μg ml-1 streptomycin, and 2 mM glutamine. […] These were then analysed by flow cytometry or placed into a Nunc, 2 Well Lab-Tek II, (Fisher Scientific) and analysed by three channel confocal microscopy.
Multi-parameter flow cytometry of staurosporine treated cells A FACS Vantage flow cytometer (as for example above). […] JC-1 two parameter fluorescent signal were derived from 488 nm excitation were detected in logarithmic mode Green J-monomer was detected using FL1 (530/30 nm emission); Orange J-aggregate was detected using FL2 (585/42 nm emission). […]

Exλmax ([2]; 20 μM solution in PBS) [nm]	Em peak [2] [nm]	Ex peak [2] [nm]	Compound	Cell fraction identified [1]	Cell permeation property [3]	Dead cell stain [3]	Live cell stain [3]	Nuclear localisation of dye [4]	Discrimination of early and late apoptosis sub-fractions (human Jurkat cells)	Fluorescence observed in dead cells ([3]; in combination with compound (IA))
646	660	620	1,5-Bis{[2-(trimethylamino)ethyl]amino}-5,8-dihydroxyanthracene-9,10-dione iodide [Compound (IA)]	identifies the non-intact cell fraction	cell impermeant	+	−	localization of high levels of compound (IA) in the nucleus	can depict these sub-fractions	
	615	518	CN(C)CCNc1cccc2c1C(=O)c1cccc(NCCN(C)C)c1C2=O [Compound (IIA), 1,5-Bis{[2-(dimethylamino)ethyl]amino}anthracene-9,10-dione]	positive cells represent the live cell (viable) fraction	cell permeant	−	+			little or no fluorescence
